Experimental data published in patent US20250340846A1, “PATIENT-DERIVED CELL-CONTAINING DROPLETS ENABLE CLINICAL PRECISION ONCOLOGY” (Xilis, Inc., priority 2022, published 2025).

Legend:
[1] = tested on: MOS from metastatic rectal cancer biopsy; test: High-throughput drug screen on patient-derived MOS, CellTiter-Glo viability; type: cell-based, human; settings: 1 μM, 72 hours, 30 tumor cells per MOS
Experimental: (§1) Drug High-Throughput Screening: Automated liquid handling was provided by the Echo Acoustic Dispenser (Labcyte) for drug administration or Well mate (Thermo Fisher) for cell plating, and assays were performed using a Clariosean plate reader (BMG Labtech). Immediately prior to cell plating, 384 well plates were stamped with 119 FDA-approved drug compounds at a final concentration of 1 μM. The compound library (Approved Oncology Set VI) was provided by the NCI Developmental Therapeutics Program (https://dtp.cancer.gov/). MOS were plated in these drug pre-coated plates at 100 MOS/well with each MOS containing 30 cells/droplet. Cell viabilities were assessed via CellTiter-Glo Luminescent Cell Viability Assay (Promega, USA) 72 hours after cell plating. Percent cytotoxicity was quantified using the following formula: 100*[1-(average CellTiterGlo^drug/average CellTiterGlo^control)].
Since clinical treatment decisions are often made within 10-14 days of diagnosis, an ideal diagnostic assay would give results within 14 days and use minimal tissue (e.g., core biopsies) to predict clinical outcome. In an initial study, a biopsy was obtained from a patient presenting with metastatic rectal cancer, and MOS (30 tumor cells per MOS) were established within 8 days of biopsy. […]

[2] = tested on: metastatic CRC patient-derived MOS; test: Oxaliplatin drug testing of MOS from CRC core biopsies (Cell Titer Glo); type: cell-based, human; settings: 1 μM and 10 μM, cut-off 50% killing
Experimental: as §1
A prospective clinical study was then designed and conducted. Core biopsies (18-gauge) were obtained from seven additional patients presenting with metastatic CRC, MOS were generated, and drug testing was performed (FIGS. 1H and 1I). MOS (30 tumor cells per MOS) were generated and responses to oxaliplatin were tested within 13 days (9.9 days on average) from time of biopsy for all eight biopsy samples, with a success rate of 100% (8/8) (TABLE 2). Given the limited tissue volume, dosages of 1 μM and 10 μM were selected based on studies disclosed elsewhere (Vlachogiannis et al., Science 359, 920-926, 2018, Ooft et al., Science Translational Med 11, 2019; Ganesh et al., Nat Med 25, 1607-1614, 2019; and Yao et al., Trends Immunol 41, 652-664, 2020). The same cut-off as measured via Cell Titer Glo was used. Among the eight patients, four had oxaliplatin-sensitive MOS and four had oxaliplatin-resistant MOS (FIG. 1J).

[3] = tested on: metastatic CRC; test: Clinical outcome of patients on oxaliplatin-based therapy (CT scan, time on treatment); type: in vivo, human
Source text: All eight patients received oxaliplatin-based therapy per usual treatment guidelines. Patient outcomes were subsequently evaluated by CT scan before and after oxaliplatin treatment (FIGS. 2B-2H), and time-on-treatment was compared to MOS oxaliplatin sensitivity.

[4] = tested on: CRC MOS lines resistant to oxaliplatin; test: Caspase 3/7 fluorescence imaging of oxaliplatin-treated CRC MOS; type: cell-based, human; settings: two oxaliplatin-resistant CRC MOS lines (CRC1282, CRC1297), 20 cells per MOS
Experimental: Cell death for each MOS was measured by imaging the Caspase 3/7 fluorescence signal and normalizing it by the cell surface area inside each MOS.

[5] = tested on: MOS generated from NSCLC patient samples; test: IO assay, Incucyte Annexin V, MOS with tumor-resident immune cells; type: cell-based, human; settings: 10 μg/mL, day 4 MOS, 30 tumor cells per MOS
Experimental: (§2) IO assay and Incucyte live cell imaging: MOS generated from primary tumor tissue were plated into 96-well plates with a density of 30-50 MOS per well supplied with culture medium without Y compound. Day 3 or day 4 MOS were treated with ESK1*, DP47 or Nivolumab for at least 3 days and imaged in Incucyte during the treatment. When performing immune cell potency assay, pre-activated PBMCs or matched TILs were stained with Cytolight Rapid red dye following manufacturer instructions. Briefly, Cytolight Rapid Red dye in one vial was diluted with 20 μl DMSO and further diluted 10-fold in PBS. PBMC or TILs were incubated at 37° C. with 5 μl diluted Cytolight Red dye (500X) in PBS for 25 minutes. After one wash with PBS, PBMC or TILs were counted and resuspended into wells containing MOS and culture medium at an effector: target ratio of 5:1 or 10:1. Annexin V green dye, Caspase 3/7 green dye, or Cytotox green dye was added into each well following manufacturer instruction. Plates were loaded into Incucyte S3 and images were taken every 2 hours for 4-5 days.
(§3) MOS generated from NSCLC patient samples at a density of 30 tumor cells per MOS formed tumorsphere-like structures in the presence of tumor-resident immune cells. MOS (day 4) were then treated with anti-PD1 therapy nivolumab at 10 μg/mL and Annexin V was used to evaluate cell apoptosis. […]

[6] = tested on: MOS derived from a kidney cancer patient; test: IO assay, Incucyte Annexin V, kidney tumor MOS; type: cell-based, human; settings: nivolumab alone, day 3 MOS
Experimental: as §2, §3

[7] = tested on: lung tumor MOS; test: IO assay with immunotherapy and MHC block, matched TILs; type: cell-based, human
Experimental: IO assay with immunotherapy and MHC block: Lung tumor MOS were incubated with anti-MHC I/II antibodies (W6/32; Tu39, Cat #361702, Biolegend) at a concentration of 20 μg/mL for 45 minutes at 37° C. before seeding into a 96-well plate at a density of 30-50 MOS per well supplied with lung tumor culture medium without Y-27632. Non-MHC-blocked MOS were used as controls. Matched TILs were added to each well at a 5:1 effector: target ratio. Nivolumab was added to wells at a working concentration of 10 μg/mL. The CD2/CD3/CD28 T cell activator reagent was added at a working concentration of 25 μl/mL. Annexin V was added into each well following the manufacturer's instructions.
Adjunctive therapies were explored by first combining PD-1 blockade (nivolumab) with autologous TILs against matched lung tumor MOS. […] TCB were then combined with autologous TILs or allogeneic PBMCs to treat lung cancer MOS (20 cells per MOS) expressing HLA-A2. ESK1* enhanced both TIL- and PBMC-induced tumor cell death compared to DP47 (FIGS. 11I, 11J, 12J, and 12K). Annexin V signals were higher in MOS treated with ESK1* vs. DP47 in all seven lung cancer samples (FIG. 11K). […] Heterogeneity in drug response between MOS from the same patient was observed and quantified (FIGS. 12K and 12L).

O=C1[O][Pt]2([NH][C@@H]3CCCC[C@H]3[NH]2)[O]C1=O [oxaliplatin]
% killing [1]: > 50%
MOS Prediction ([2]; patient CRC-MOS-001): Sensitive
MOS Prediction ([2]; patient CRC-MOS-002): Resistance
MOS Prediction ([2]; patient CRC-MOS-003): Sensitive
MOS Prediction ([2]; patient CRC-MOS-004): Resistance
MOS Prediction ([2]; patient CRC-MOS-005): Sensitive
MOS Prediction ([2]; patient CRC-MOS-006): Resistance
MOS Prediction ([2]; patient CRC-MOS-007): Sensitive
MOS Prediction ([2]; patient CRC-MOS-008): Resistance
patient tumor response to oxaliplatin-based therapy ([3]; metastatic rectal cancer patient, 6 months later): still responded
Clinical Outcome ([3]; patient CRC-MOS-001, oxaliplatin-based therapy): Response
Response Time ([3]; patient CRC-MOS-001, time on oxaliplatin-based treatment): 46 wks
Clinical Outcome ([3]; patient CRC-MOS-002, oxaliplatin-based therapy): Response
Response Time ([3]; patient CRC-MOS-002, time on oxaliplatin-based treatment): 28 wks
Clinical Outcome ([3]; patient CRC-MOS-003, oxaliplatin-based therapy): Response
Response Time ([3]; patient CRC-MOS-003, time on oxaliplatin-based treatment): 38 wks
Clinical Outcome ([3]; patient CRC-MOS-004, oxaliplatin-based therapy): No Response
Response Time ([3]; patient CRC-MOS-004, time on oxaliplatin-based treatment): 8 wks
Clinical Outcome ([3]; patient CRC-MOS-005, oxaliplatin-based therapy): Response
Response Time ([3]; patient CRC-MOS-005, time on oxaliplatin-based treatment): 36 wks
Clinical Outcome ([3]; patient CRC-MOS-006, oxaliplatin-based therapy): No Response
Response Time ([3]; patient CRC-MOS-006, time on oxaliplatin-based treatment): 3 wks
Clinical Outcome ([3]; patient CRC-MOS-007, oxaliplatin-based therapy): No Response
Response Time ([3]; patient CRC-MOS-007, time on oxaliplatin-based treatment): 24 wks
Clinical Outcome ([3]; patient CRC-MOS-008, oxaliplatin-based therapy): No Response
Response Time ([3]; patient CRC-MOS-008, time on oxaliplatin-based treatment): 6 wks
cell killing, Caspase 3/7 signal normalized by cell surface area [4]: only the highest dosages induced significant cell killing

nivolumab
death of tumorspheres within MOS (Annexin V) [5]: induced death in the tumorspheres
killing of tumorspheres inside MOS (Annexin V) [6]: did not enhance killing
TIL-mediated killing inside MOS (Annexin V) ([7]; 10 μg/mL with autologous TILs, effector:target 5:1): enhanced TIL-mediated killing
TIL-mediated killing inside MOS (Annexin V) with MHC block ([7]; anti-MHC I/II antibodies 20 μg/mL, autologous TILs): abrogated

CCc1c2c(nc3ccc(OC(=O)N4CCC(N5CCCCC5)CC4)cc13)-c1cc3c(c(=O)n1C2)COC(=O)[C@]3(O)CC [irinotecan]
% killing [1]: < 50%
